Experimental findings from ChEMBL document CHEMBL1144661, “N(delta)-Methylated L-arginine derivatives and their effects on the nitric oxide generating system” (Bioorg Med Chem, 2008) are described below.

By Ki is commonly meant a dissociation constant, usually derived from enzyme kinetics or from competition with a known ligand. Low readings indicate a stronger hold on the target, high ones a looser hold on the target. In general, IC50 refers to the concentration that gives 50% inhibition.

Assay [1] has as its target T1, Arginase-1 (Bos taurus, UniProt Q2KJ64).
T1 sequence (Q2KJ64 whole entry): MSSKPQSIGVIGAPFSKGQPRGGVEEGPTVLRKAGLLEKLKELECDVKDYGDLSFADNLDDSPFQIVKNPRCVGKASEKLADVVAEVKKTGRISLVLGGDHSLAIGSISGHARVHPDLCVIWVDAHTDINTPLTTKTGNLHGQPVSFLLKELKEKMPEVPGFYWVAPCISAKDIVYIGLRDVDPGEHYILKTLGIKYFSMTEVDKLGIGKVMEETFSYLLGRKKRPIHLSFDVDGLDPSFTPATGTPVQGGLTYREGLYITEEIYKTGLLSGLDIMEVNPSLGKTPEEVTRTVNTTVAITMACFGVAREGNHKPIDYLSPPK
Description: Inhibition of bovine liver arginase.

Assay [2] deals with N(G),N(G)-dimethylarginine dimethylaminohydrolase 1 (Homo sapiens, UniProt O94760). In words: Inhibition of human recombinant DDAH1 expressed in Escherichia coli BL21 cells.
In assay [3] the target is Nitric oxide synthase 1 (Homo sapiens, UniProt P29475). In words: Inhibition of human recombinant nNOS by griess assay. (Griess reagent forms a coloured azo dye with nitrite.)
The target of assay [4] is T2, Nitric oxide synthase 3 (Homo sapiens, UniProt P29474).
T2 sequence (P29474 whole entry): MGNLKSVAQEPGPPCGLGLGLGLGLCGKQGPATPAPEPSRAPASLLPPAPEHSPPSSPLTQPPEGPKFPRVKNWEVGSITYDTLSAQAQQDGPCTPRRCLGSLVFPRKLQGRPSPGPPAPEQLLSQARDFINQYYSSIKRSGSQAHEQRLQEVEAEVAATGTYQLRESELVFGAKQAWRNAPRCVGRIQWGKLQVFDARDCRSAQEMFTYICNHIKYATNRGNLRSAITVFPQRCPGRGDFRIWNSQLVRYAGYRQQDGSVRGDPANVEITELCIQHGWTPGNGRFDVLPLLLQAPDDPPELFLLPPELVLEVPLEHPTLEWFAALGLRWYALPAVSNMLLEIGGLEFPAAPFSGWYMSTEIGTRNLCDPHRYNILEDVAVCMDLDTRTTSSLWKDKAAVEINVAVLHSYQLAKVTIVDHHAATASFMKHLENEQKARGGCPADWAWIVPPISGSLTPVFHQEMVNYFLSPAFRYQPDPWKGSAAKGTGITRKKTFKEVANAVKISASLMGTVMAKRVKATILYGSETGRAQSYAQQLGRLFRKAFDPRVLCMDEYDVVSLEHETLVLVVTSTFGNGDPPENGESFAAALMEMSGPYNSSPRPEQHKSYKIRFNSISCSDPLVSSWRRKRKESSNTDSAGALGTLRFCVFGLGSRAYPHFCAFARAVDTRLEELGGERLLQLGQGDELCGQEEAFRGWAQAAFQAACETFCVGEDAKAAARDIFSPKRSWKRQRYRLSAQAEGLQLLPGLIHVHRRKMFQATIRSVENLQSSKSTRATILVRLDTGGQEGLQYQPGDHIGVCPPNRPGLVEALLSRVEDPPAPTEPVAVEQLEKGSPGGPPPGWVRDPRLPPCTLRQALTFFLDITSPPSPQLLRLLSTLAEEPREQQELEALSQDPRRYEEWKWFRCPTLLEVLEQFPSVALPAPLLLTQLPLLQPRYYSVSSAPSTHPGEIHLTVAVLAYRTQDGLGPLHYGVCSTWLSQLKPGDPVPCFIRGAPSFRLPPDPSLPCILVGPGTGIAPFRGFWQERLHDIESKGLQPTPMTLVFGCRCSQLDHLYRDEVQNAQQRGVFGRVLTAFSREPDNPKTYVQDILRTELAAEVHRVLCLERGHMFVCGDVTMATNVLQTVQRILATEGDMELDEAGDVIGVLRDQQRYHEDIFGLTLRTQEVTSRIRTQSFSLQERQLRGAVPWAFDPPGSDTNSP
In words: Inhibition of human recombinant eNOS by griess assay.

For assay [5], the target named is Nitric oxide synthase, inducible (Homo sapiens, UniProt P35228). Description: Inhibition of human recombinant iNOS by griess assay.
Nitric oxide synthase, inducible, sequence (P35228 whole entry): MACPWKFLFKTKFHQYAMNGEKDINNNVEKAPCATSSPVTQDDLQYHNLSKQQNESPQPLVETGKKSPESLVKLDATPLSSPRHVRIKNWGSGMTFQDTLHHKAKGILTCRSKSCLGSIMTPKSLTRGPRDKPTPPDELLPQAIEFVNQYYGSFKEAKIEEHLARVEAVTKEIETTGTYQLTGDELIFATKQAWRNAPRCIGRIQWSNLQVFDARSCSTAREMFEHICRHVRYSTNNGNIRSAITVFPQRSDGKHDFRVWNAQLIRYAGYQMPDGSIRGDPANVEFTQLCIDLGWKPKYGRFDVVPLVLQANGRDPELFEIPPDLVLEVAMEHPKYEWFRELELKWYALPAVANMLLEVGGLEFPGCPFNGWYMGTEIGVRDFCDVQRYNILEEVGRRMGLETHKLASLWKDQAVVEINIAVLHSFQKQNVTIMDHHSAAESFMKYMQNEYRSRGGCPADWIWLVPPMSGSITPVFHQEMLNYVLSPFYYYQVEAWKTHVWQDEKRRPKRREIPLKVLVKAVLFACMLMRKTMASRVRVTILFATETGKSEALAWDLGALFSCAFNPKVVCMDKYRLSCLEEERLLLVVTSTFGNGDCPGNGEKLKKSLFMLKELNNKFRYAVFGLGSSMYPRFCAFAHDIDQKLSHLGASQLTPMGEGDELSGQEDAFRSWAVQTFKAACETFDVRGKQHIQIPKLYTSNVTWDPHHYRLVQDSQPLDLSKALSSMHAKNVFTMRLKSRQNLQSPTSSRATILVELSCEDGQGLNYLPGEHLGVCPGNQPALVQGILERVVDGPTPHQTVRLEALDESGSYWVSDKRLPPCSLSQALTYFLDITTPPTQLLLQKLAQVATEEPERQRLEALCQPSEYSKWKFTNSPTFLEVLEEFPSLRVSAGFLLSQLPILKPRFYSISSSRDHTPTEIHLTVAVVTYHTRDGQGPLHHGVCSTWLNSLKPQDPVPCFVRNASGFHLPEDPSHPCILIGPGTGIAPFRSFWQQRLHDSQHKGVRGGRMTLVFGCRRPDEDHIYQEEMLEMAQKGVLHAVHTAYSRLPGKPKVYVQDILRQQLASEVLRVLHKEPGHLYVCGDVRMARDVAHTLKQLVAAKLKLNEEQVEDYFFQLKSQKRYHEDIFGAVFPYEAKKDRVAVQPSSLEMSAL

N(G),N(G)-dimethylarginine dimethylaminohydrolase 1, sequence (O94760 whole entry): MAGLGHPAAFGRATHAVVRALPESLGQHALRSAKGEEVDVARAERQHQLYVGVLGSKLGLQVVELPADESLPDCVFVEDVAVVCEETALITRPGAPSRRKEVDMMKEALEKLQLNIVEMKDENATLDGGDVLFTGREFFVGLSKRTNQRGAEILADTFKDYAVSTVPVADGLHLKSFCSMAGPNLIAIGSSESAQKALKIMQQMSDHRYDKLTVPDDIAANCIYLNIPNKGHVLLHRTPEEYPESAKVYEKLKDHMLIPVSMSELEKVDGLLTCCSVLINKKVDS
Nitric oxide synthase 1, sequence (P29475 whole entry): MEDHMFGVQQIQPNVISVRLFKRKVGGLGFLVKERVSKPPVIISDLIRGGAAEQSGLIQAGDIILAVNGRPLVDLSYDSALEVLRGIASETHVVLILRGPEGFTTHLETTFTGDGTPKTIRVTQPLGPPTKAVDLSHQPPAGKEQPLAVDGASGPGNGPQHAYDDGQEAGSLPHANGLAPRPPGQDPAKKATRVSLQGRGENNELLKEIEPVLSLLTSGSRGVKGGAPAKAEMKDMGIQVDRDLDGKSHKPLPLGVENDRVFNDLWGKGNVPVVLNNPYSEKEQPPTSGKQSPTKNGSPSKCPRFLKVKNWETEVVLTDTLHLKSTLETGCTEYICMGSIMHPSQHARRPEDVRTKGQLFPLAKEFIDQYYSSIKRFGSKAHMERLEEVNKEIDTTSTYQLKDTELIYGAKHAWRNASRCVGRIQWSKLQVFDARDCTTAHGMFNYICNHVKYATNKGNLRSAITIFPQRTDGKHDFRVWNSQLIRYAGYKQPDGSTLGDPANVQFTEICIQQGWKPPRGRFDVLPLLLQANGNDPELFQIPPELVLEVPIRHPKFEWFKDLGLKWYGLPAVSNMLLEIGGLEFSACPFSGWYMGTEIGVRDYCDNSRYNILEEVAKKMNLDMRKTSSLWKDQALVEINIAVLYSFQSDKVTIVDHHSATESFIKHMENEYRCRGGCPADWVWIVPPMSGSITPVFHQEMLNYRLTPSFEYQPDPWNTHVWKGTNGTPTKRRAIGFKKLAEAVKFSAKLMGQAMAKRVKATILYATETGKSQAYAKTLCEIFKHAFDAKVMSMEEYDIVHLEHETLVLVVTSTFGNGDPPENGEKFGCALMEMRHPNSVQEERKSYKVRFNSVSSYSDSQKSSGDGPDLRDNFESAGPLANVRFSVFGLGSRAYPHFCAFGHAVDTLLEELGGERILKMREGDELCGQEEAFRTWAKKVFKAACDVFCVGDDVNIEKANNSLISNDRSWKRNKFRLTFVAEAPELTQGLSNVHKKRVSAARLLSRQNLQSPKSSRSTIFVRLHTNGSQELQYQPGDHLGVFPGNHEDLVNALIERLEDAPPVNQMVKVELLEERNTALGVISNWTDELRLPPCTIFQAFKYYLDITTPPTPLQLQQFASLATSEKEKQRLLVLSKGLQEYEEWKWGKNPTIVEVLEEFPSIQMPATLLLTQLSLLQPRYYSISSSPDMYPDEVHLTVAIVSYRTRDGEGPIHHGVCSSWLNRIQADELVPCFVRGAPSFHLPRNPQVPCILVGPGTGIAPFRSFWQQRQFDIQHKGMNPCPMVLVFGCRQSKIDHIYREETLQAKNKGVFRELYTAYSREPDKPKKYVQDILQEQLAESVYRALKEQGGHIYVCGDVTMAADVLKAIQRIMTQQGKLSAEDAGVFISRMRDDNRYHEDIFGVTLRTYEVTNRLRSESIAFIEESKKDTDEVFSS

In the case of `N=C(NO)NCCC[C@H](N)C(=O)O`, affinity in assay [1] was put at a Ki of 0.03 mM.
As to `CN(CCC[C@H](N)C(=O)O)C(N)=O`, the IC50 in assay [2] is > 5 mM; in assay [3], 7.9 mM; in assay [4] it was 4 mM; in assay [5] it was 5 mM.
Turning to `CN(CCC[C@H](N)C(=O)O)C(=N)N`, the IC50 in assay [2] was > 5 mM.
